Reference: paper PMC2923755, “Thermolability of mutant MMACHC protein in the vitamin B12-responsive cblC disorder” (Molecular Genetics and Metabolism, 2010)
Changes are numbered by the printed parent chain. pKd: −log10 of the molar value. Several values for one entry are separate records, joined by “and”; a condition that tells them apart may be missing. Equal values may be shown once. Entries after “also recorded” stand apart in the source; their conditions may differ.

Assays:
His-MMACHC-R161Q [1] = target: T1, His-MMACHC-R161Q (Homo sapiens, UniProt Q9Y4U1, R161Q); assay: UV-visible absorption spectra, base-on/base-off binding; details: 5 μM cobalamin, 50 μM protein, pH 7.0
T1 construct: made in house; host or cells: E. coli BL21 DE3
T1 sequence (Q9Y4U1 1-282 R161Q): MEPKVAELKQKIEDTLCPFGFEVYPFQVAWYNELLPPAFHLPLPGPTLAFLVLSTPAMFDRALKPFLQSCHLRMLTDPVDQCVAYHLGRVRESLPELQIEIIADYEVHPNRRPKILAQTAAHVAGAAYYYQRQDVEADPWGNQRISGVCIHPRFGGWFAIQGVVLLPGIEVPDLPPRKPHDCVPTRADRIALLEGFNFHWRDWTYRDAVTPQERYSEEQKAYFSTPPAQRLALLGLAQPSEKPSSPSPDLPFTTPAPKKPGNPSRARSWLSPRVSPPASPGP
Description: […] In order to retain the high amounts of protein necessary for these experiments, the His-tag (wt and R161Q) or GST-tag (wt protein) was left on. Absorption spectrum measurements were carried out using a MOS-250 spectrometer and recorded using Bio-Kine 32 v4.20 software.
(§1) In order to determine whether the R161Q mutation interferes with the ability of MMACHC to support this transition, we examined the UV–visible absorption spectra for the proteins bound to AdoCbl, as an example of an alkylcobalamin, as well as for the proteins bound to CNCbl and OHCbl. Each cobalamin was added at a concentration of […] (Fig. 5). To determine whether the cobalamin was base-on or base-off, in the case of CNCbl both base-on and base-off spectra were determined for the free vitamin, as previously reported [[12,14]]. […] Confirming our earlier data, GST-tagged MMACHC-wt bound CNCbl in the base-off state (Table 2). […] Both MMACHC-wt and MMACHC-R161Q bound AdoCbl in the base-off state (Fig. 5; Table 2). […] Finally, neither MMACHC-wt nor MMACHC-R161Q modified OHCbl binding, which retained the base-on profile regardless of the MMACHC species present (Fig. 5; Table 2).

[2] = UV-visible absorption spectra of free cobalamin; assay type: physicochemical; details: for α/β-Peak: nm; for γ-Peak: wavelength
Description: (§2) To determine base-on or base-off binding, 5 μM of the appropriate cobalamin or cobinamde in buffer (100 mM Tris, pH 7.0), was incubated in the dark with 400 μl total of 50 μM MMACHC protein (wild-type or R161Q), prepared in the same buffer, or alone, for 5 min at room temperature. In order to retain the high amounts of protein necessary for these experiments, the His-tag (wt and R161Q) or GST-tag (wt protein) was left on. Absorption spectrum measurements were carried out using a MOS-250 spectrometer and recorded using Bio-Kine 32 v4.20 software.
as §1

MMACHC-R161Q [3] = target: T2, MMACHC-R161Q (Homo sapiens, UniProt Q9Y4U1, R161Q); parameters: method as in PMID 19700356; details: cited from earlier work
T2 construct: His-tag (N, cleaved yes); made in house; host or cells: E. coli BL21 DE3
T2 sequence (Q9Y4U1 1-282 R161Q): T1 sequence (Q9Y4U1 1-282 R161Q)

MMACHC-R161Q [4] = target: T2, MMACHC-R161Q; assay: Differential scanning fluorimetry (DSF), stabilization by cobalamins; assay type: binding; details: Tm at 50 μM ligand minus Tm at 0 μM ligand; DSF
Description: (§3) DSF was performed and analyzed as described in Niesen et al., with minor modifications. Purified MMACHC proteins were diluted to 0.1 mg/ml (3 μM) in buffer (10 mM HEPES pH 7.5, 0.5 M NaCl, 5% glycerol) with 1:1000 Sypro Orange (Invitrogen) and run in triplicate. The proteins were heated from 5 to 75 °C with a ramp rate of 1 °C/min in a thermocycler (Bio-rad C1000 Thermocycler, CFX96 Real-time system). All graphs were normalized so that minimum fluorescence was set to 0 and maximum fluorescence set to 1. […] Final graphs and AC50’s were generated using Kadeidagraph 4.0 software (Synergy Software, Reading, PA). AC50’s were determined by fitting the ΔTm vs. ligand concentration curves to the equation ΔTm = ΔTm max[S]/(AC50 + [S]) where ΔTm is the change in melting temperature (Tm[protein + ligand] − Tm[protein]), ΔTm max is the maximal change in Tm at saturating (50 μM) ligand concentration and [S] is the ligand concentration.
(§4) Wild-type (MMACHC-wt) and mutant (MMACHC-R161Q) MMACHC were expressed and purified to >95% purity, with His-tag removed, as judged by SDS–PAGE (Fig. 2A). In order to investigate the thermostability of MMACHC we used DSF, a method that measures protein stability and ligand-induced changes in stability [[20,21]]. DSF uses an environmentally sensitive dye, such as Sypro orange, to monitor protein-unfolding caused by heat denaturation. As the protein unfolds, the dye, which has a higher fluorescence quantum yield in nonpolar environments than in aqueous media, binds to hydrophobic regions of the protein, causing a large increase in fluorescence [[22,23]]. Protein stability is expressed as the melting point of the protein (Tm), that is, the transition midpoint of the fluorescence curve, corresponding to the temperature at which half of the protein molecules are folded and half are unfolded. […] Even lower was the stability of MMACHC-R161Q (Tm = 37.1 ± 0.7 °C) (Fig. 2B). The difference in Tm was small but nonetheless significant (p < 0.01). A second difference between the wild-type and mutant proteins was the shape of the unfolding curves, with the unfolding of the mutant protein showing high cooperativity indicating a two-state unfolding mechanism while the unfolding of the wild-type protein stretched over a larger temperature range and comprised two phases (Fig. 2B; also Fig. 3A at 0 μM OHCbl).

MMACHC-wt = target: T3, MMACHC-wt (Homo sapiens, UniProt Q9Y4U1); assay: as above; assay type: binding; details: Tm at 50 μM ligand minus Tm at 0 μM ligand
T3 construct: His-tag (N, cleaved yes); made in house; host or cells: E. coli BL21 DE3
T3 sequence (Q9Y4U1 1-282): T1 sequence (Q9Y4U1 1-282 R161Q) with Q161R
Description: as §3, §4

MMACHC-G147D = tested on: MMACHC-G147D; parameters: method as in PMID 19700356; details: recombinant protein, in words; cited from earlier work
GST-MMACHC-wt [5] = target: T4, GST-MMACHC-wt (Homo sapiens, UniProt Q9Y4U1); parameters: method as in PMID 19700356; details: earlier demonstration; cited from earlier work
T4 construct: made in house
T4 sequence (Q9Y4U1 1-282): T1 sequence (Q9Y4U1 1-282 R161Q) with Q161R

His-MMACHC-wt = target: T5, His-MMACHC-wt (Homo sapiens, UniProt Q9Y4U1); assay: UV-visible absorption spectra, base-on/base-off binding; details: 5 μM cobalamin, 50 μM protein, pH 7.0
T5 construct: made in house; host or cells: E. coli BL21 DE3
T5 sequence (Q9Y4U1 1-282): T1 sequence (Q9Y4U1 1-282 R161Q) with Q161R
Description: as §2, §1

GST-MMACHC-wt [6] = target: T4, GST-MMACHC-wt; assay: as above; details: 5 μM cobalamin, 50 μM protein, pH 7.0
Description: as §2, §1

His-MMACHC-R161Q [7] = target: T1, His-MMACHC-R161Q; assay: as above; details: 20 μM CNCbl, pH 7.0

Substance: Cyanocobalamin [CNCbl]
- Base-on/off (His-MMACHC-R161Q [1]): shifted incompletely towards full base-off binding; also recorded: On/Off
- α/β-Peak (His-MMACHC-R161Q [1]; nm): 540 nm
- γ-Peak (His-MMACHC-R161Q [1]; wavelength): 359
- α/β-Peak ([2]; base-off): 529 nm
- γ-Peak ([2]; base-off): 355 nm
- α/β-Peak ([2]; base-on): 551 nm
- γ-Peak ([2]; base-on): 360 nm
- pKd (MMACHC-R161Q [3]; published Kd, unit printed in b35 only): 4.70
- cobalamin binding (MMACHC-R161Q [3]; recombinant protein, in words): poorly; also recorded: impaired
- ΔTm max (MMACHC-R161Q [4]): 1 °C and 1.1 ± 0.6 °C
- ΔTm max (MMACHC-wt): 3.4 ± 0.6 °C
- cobalamin binding (MMACHC-G147D): unable to bind
- binding conformation (base-on/off) (GST-MMACHC-wt [5]): base-off
- Base-on/off (His-MMACHC-wt): Off
- α/β-Peak (His-MMACHC-wt; nm): 531 nm
- γ-Peak (His-MMACHC-wt; wavelength): 358
- Base-on/off (GST-MMACHC-wt [6]): base-off and Off
- α/β-Peak (GST-MMACHC-wt [6]; nm): 530 nm
- γ-Peak (GST-MMACHC-wt [6]; wavelength): 357
- Base-on/off (His-MMACHC-R161Q [7]): Off
- α/β-Peak (His-MMACHC-R161Q [7]; nm): 531 nm
- γ-Peak (His-MMACHC-R161Q [7]; wavelength): 359
